Results from patent US11224223B2, “Feeding deterrence of pests such as Hemiptera, Lepidoptera and Coleoptera” (BEDOUKIAN RESEARCH, INC., priority 2012, dated 2022).

Experiments:
Assay type in all cases: in vivo
Codling Moth larvae = assay: Repellency as feeding deterrence and mortality in Codling Moth larvae on treated media; settings: for Repellency at 24 hours: first instar larva, control 8%
Description: Another test was designed to measure the repellency as feeding deterrence in Codling Moth larvae. The treatment was applied to the surface of a proprietary laboratory media in a tray with wells for each compound. The media was allowed to dry for 30-60 minutes so that larvae were not exposed to it as a liquid. One first instar codling moth larva was then placed on the treated media. The cover film was placed on the tray to prevent escapes. Ten additional replicates treated with a 57% ethanol solution were prepared to serve as controls. […] After the 24 hour reading, the larvae were extracted from the media to record any mortality.
Mortality observations were also made for the above protocol. The control was the 57% ethanol:43% water solution.

[1] = test system: Euschistus heros-Neotropical Brown Stink Bugs; assay: Stink bug feeding damage on soybean pods; settings: 3% compound, soybean plants at R6 stage, 48 hours
Description: To compare the feeding/resting preference of stink bug adults for different plant parts, 10 pots with soybean plants at the R6 (pod-filling) stage of development are used. 5 pots of soybeans are sprayed with 3% of treatment in a 2% Triton X:water solution and 5 pots of soybean are treated with 2% Triton X:water solution as controls. Thirty stink bugs are placed individually in each cage and allowed to feed for 48 hours. Insects are removed and plant parts are collected for visual analysis of damage. Feeding damage on the pods is counted for both treatments. The selective antifeeding rate (%) formula is [(C−T)/(C+T)]×100, and the non-selective antifeeding rate (%) formula is [(C−T)/C)]×100, where C and T are the numbers of feeding damages on the control and treated plant pods, respectively.

[2] = test system: Leptinotarsa decemlineata-Colorado Potatoe Beetles; assay: Choice feeding assay on potato leaf disks; settings: 3% compound, larvae, 24 h
Description: For choice feeding assays, 3% alcohol solutions of the tested compounds are prepared. Disks (4.0 cm in diameter) are cut from potato leaves and are dipped in the test solutions or alcohol alone as a control. After the complete evaporation of the solvent, the disks are offered to 10 larvae. Control and treated disks are placed at alternate corners in Petri dishes (150 by 20 mm) lined with moistened filter paper (choice test). All dishes are placed in an incubator. Four replicates and 40 larva are used for each chemical. In each replicate, the insects are allowed to feed ad libitum for 24 h at 24 C under a 16:8 (L:D) photoperiod. After 24 h, the remaining uneaten area of each potato leaf disk is measured using a scanner and software. The selective antifeeding rate (%) formula is [(C−T)/(C+T)]×100, and the non-selective antifeeding rate (%) formula is [(C−T)/C)]×100, where C and T are the areas consumed by the control and treated leaf disks, respectively.

Tineola spp. = assay: Clothes moth feeding damage on silk fabric, choice test; settings: 3% compound; silk disks; late instar larvae; 24 hours; control 50/50
Description: For feeding assays, 3% alcohol solutions of the tested compounds are prepared. Disks (2.0 cm in diameter) of undyed silk fabric are dipped in the test solutions or alcohol alone as a control. After the complete evaporation of the solvent, the disks are presented in a choice test to 10 late instar Tineola spp. larvae. All dishes are placed in an incubator in the dark. Four replicates are used for each chemical. After 24 hours, the number of individuals choosing to feed on each disk are counted.

Aphis gossypii = assay: Melon aphid repellency on leaf choice assays; settings: 3% compound in a Triton X:Water solution; n=100; control 50/50
Excerpt: Melon Aphid Repellency on Leaf Choice Assays Aphis gossypii are maintained on squash plants. Individual aphids (n=100) are given the choice between leaves with and without repellent treatments. A separate group of aphids are given a choice between untreated vs. untreated leaves as a control. The number of aphids choosing each leaf is counted both choice tests. The number of aphids choosing each treatment is compared to the control to determine the repellent effect.

Dermestid spp. = assay: Dermestid beetle feeding damage on silk fabric; settings: 3% compound; undyed silk disks; late instar larvae; 1 week
Description: Dermestid Beetle Feeding Damage on Silk Fabric
For feeding assays, 3% alcohol solutions of the tested compounds are prepared. Disks (4.0 cm in diameter) of undyed silk fabric are dipped in the test solutions or alcohol alone as a control. After the complete evaporation of the solvent, the disks are offered to 10 late instar larvae. All dishes are placed in an incubator. Four replicates are used for each chemical. After 1 week, the remaining uneaten area of each silk disk is measured using a scanner and software. The selective antifeeding rate (%) formula is [(C−T)/(C+T)]×100, and the non-selective antifeeding rate (%) formula is [(C−T)/C)]×100, where C and T are the areas consumed by the control and treated silk disks, respectively.

Popillia japonica = assay: Japanese beetle feeding damage on basil; settings: 3% compound; basil leaf disks; adult beetle; 24 h
Description: Japanese Beetle Feeding Damage on Basil For choice feeding assays, 3% alcohol solutions of the tested compounds are prepared. Disks (4.0 cm in diameter) are cut from basil leaves and are dipped in the test solutions or alcohol alone as a control. After the complete evaporation of the solvent, the disks are offered to 1 adult beetle. All dishes are placed in an incubator. Four replicates are used for each chemical. After 24 h, the remaining uneaten area of each basil leaf disk is measured using a scanner and software. The selective antifeeding rate (%) formula is [(C−T)/(C+T)]×100, and the non-selective antifeeding rate (%) formula is [(C−T)/C)]×100, where C and T are the areas consumed by the control and treated leaf disks, respectively.

sharpshooters = assay: Leafhopper repellency on citrus choice assays; settings: 3% compound; citrus seedlings; 100 sharpshooters per cage; control 50/50
Excerpt: (§1) Leafhopper Repellency on Citrus Choice Assays Citrus seedlings are sprayed with either a 3% solution of repellent chemical in a 5%:95% ETOH:Water or only 5%:95% ETOH:Water as a control. Two seedlings are placed in a screen cage, either a treatment vs control tree or a control vs control tree. 100 sharpshooters are released into each cage. The number of sharpshooters choosing each leaf is counted for both choice tests. The number of sharpshooters choosing each treatment is compared to the control to determine if there is a repellent effect.

Plodia interpunctella = assay: Feeding repellent assay for Indian meal moth larva on treated rice; settings: 10% compound in a 5% Ethanol:95% water solution, third instar larvae, 1 week
Description: (§2) Feeding Repellent Assay for Indian Meal Moth Larva One gram of rice is weighed and treated with 2% by weight of each test chemical or ethanol as a control for each treatment and replicate. The grains are allowed to dry and then weighed again. Treated or control rice grains are placed in a petri dish. Third instar larvae are starved for 8 h and gently introduced into the center of each compartment. 20 larva are screened per treatment, and each experiment is repeated three times. The weight of rice grains is measured again after 1 week. The selective antifeeding rate (%) formula is [(C−T)/(C+T)]×100, and the non-selective antifeeding rate (%) formula is [(C−T)/C)]×100, where C and T are the areas consumed by the control and treated leaf disks, respectively.

psyllids = assay: Psyllid repellency on potato choice assays; settings: 3% compound; potato plants; 100 psyllids per cage; control 50/50
Excerpt: Psyllid Repellency on Potato Choice Assays
as §1, with “Potato plants” for “Leafhopper Repellency on Citrus Choice Assays Citrus seedlings”, “plants” for “seedlings”, “tree,” for “tree.”, “psyllids” for “sharpshooters”

Sitostroga cerealella = assay: Feeding repellent assay for Angoumois larva on treated rice; settings: 10% compound in a 5% Ethanol:95% water solution, third instar larvae, 1 week
Description: Feeding Repellent Assay for Angoumois Larva
as §2, with “One” for “Feeding Repellent Assay for Indian Meal Moth Larva One”

[3] = test system: brown marmorated stink bugs (BMSB); assay: Repellency as feeding deterrence in brown marmorated stink bugs, treated filter paper with green bean; settings: control 38%
Description: A test was designed to measure the repellency as feeding deterrence in brown marmorated stink bugs (BMSB). Five replicates of 5 BMSBs were introduced into test arenas, containing one 60 mm×15 mm Petri dish with treated filter papers in which a food source (green bean) was attached, at the start of the test. The small Petri dishes containing the treated filter paper and food source were covered with a fitted Petri dish lid in between observation times, and were removed 5 minutes before each observation time to prevent stink bugs from feeding until sated. The distribution of the BMSBs was observed and documented hourly for 5 hours.

[4] = compound at 3.5% in a 57% Ethanol:43% water solution
[5] = compound at 2.5% in a 57% Ethanol:43% water solution

## CCCCCCCC1CC(=O)C=C(C)C1 (centres unmarked) [3-Methyl-5-Heptyl-2-Cyclohexenone]
Codling Moth larvae; [4]
  Increased Mortality over Control Mortality at 24 hours: 93%
  Repellency at 24 hours: 95%

## CCCC1CC(C)=CC(O)C1 (centres unmarked) [3-Methyl-5-Propyl-2-Cyclohexenol]
Codling Moth larvae; [4]
  Increased Mortality over Control Mortality at 24 hours: 9%
  Repellency at 24 hours: 30%

## CC(C)=CCC/C(C)=C/CC1CCCC1O (centres unmarked) [Apritol]
[1]
  % Antifeedent Activity: 60%
[2]
  % Repellency: 15%
Tineola spp.
  Individuals choosing to feed on each disk: Treated: 20
  Individuals choosing to feed on each disk: Untreated: 80
Aphis gossypii
  Number of Aphids Choosing each Treatment: Treated: 30
  Number of Aphids Choosing each Treatment: Untreated: 70
Dermestid spp.
  % Repellency: 15%
Popillia japonica
  % Repellency: 15%
sharpshooters
  Number of Psyllids Choosing each Treatment: Treated: 30
  Number of Psyllids Choosing each Treatment: Untreated: 70
Plodia interpunctella
  % Antifeedent Activity: 70%
psyllids
  Number of Psyllids Choosing each Treatment: Treated: 30
  Number of Psyllids Choosing each Treatment: Untreated: 70
Sitostroga cerealella
  % Antifeedent Activity: 70%

## CC(C)=CCC/C(C)=C/CC1CCCC1=O (centres unmarked) [Apritone, apritone]
[1]
  % Antifeedent Activity: 60%
[2]
  % Repellency: 15%
Tineola spp.
  Individuals choosing to feed on each disk: Treated: 20
  Individuals choosing to feed on each disk: Untreated: 80
Aphis gossypii
  Number of Aphids Choosing each Treatment: Treated: 30
  Number of Aphids Choosing each Treatment: Untreated: 70
Dermestid spp.
  % Repellency: 15%
Popillia japonica
  % Repellency: 15%
sharpshooters
  Number of Psyllids Choosing each Treatment: Treated: 30
  Number of Psyllids Choosing each Treatment: Untreated: 70
Plodia interpunctella
  % Antifeedent Activity: 70%
psyllids
  Number of Psyllids Choosing each Treatment: Treated: 30
  Number of Psyllids Choosing each Treatment: Untreated: 70
Sitostroga cerealella
  % Antifeedent Activity: 70%

## CCCCCCCC1CCCC(=O)O1 (centres unmarked) [Delta-dodecalactone]
[1]
  % Antifeedent Activity: 80%
[2]
  % Repellency: 40%
Tineola spp.
  Individuals choosing to feed on each disk: Treated: 10
  Individuals choosing to feed on each disk: Untreated: 90
Aphis gossypii
  Number of Aphids Choosing each Treatment: Treated: 20
  Number of Aphids Choosing each Treatment: Untreated: 80
Dermestid spp.
  % Repellency: 40%
Popillia japonica
  % Repellency: 40%
sharpshooters
  Number of Psyllids Choosing each Treatment: Treated: 20
  Number of Psyllids Choosing each Treatment: Untreated: 80
Plodia interpunctella
  % Antifeedent Activity: 70%
psyllids
  Number of Psyllids Choosing each Treatment: Treated: 20
  Number of Psyllids Choosing each Treatment: Untreated: 80
Sitostroga cerealella
  % Antifeedent Activity: 70%

## CCCCCCCCC1CCC(=O)O1 (centres unmarked) [Gamma-Dodecalactone]
[3]; [4]
  Repellency averaged over 5 hours: 82%
Codling Moth larvae; [4]
  Repellency at 24 hours: 46%
Codling Moth larvae; in vivo
  Increased Mortality over Control Mortality at 24 hours: 37%

## CCCCCCCCCC1(C)CCC(=O)O1 (centres unmarked) [Gamma-Methyl Tridecalactone]
[3]; [4]
  Repellency averaged over 5 hours: 67%

## CCCCCC1C(=O)CCC1CC(=O)OC (stereo not drawn) [Methyl Dihydrojasmonate - High epi, Methyl Dihydrojasmonate]
[3]; [5]
  Repellency averaged over 5 hours: 39%

## CCCCCC1C(=O)CCC1CC(=O)OC (stereo not drawn) [Methyl Dihydrojasmonate - Low epi, Methyl Dihydrojasmonate]
[3]; [5]
  Repellency averaged over 5 hours: 58%

## CC1CCC(C(C)(C)O)C(O)C1 (centres unmarked) [Para-Menthanediol, p-Menthane-3,8-diol, reference compound]
[3]; [4]
  Repellency averaged over 5 hours: 91%
Codling Moth larvae; [4]
  Increased Mortality over Control Mortality at 24 hours: 3%
  Repellency at 24 hours: 10%

## CCCCCC1C(=O)CCC1CC(=O)OCC=C(C)C (centres unmarked) [Prenyl Dihydrojasmonate]
Codling Moth larvae; [4]
  Increased Mortality over Control Mortality at 24 hours: 34%
  Repellency at 24 hours: 79%

## CCCCCC1C(=O)CCC1CC(=O)OCCC (stereo not drawn) [Propyl Dihydrojasmonate - High epi, Propyl Dihydrojasmonate]
[3]; [5]
  Repellency averaged over 5 hours: 49%

## CCCCCC1C(=O)CCC1CC(=O)OCCC (stereo not drawn) [Propyl Dihydrojasmonate - Low epi, Propyl Dihydrojasmonate]
[3]; [5]
  Repellency averaged over 5 hours: 74%
